Assays:
mouse podocyte cell line = assay: VSIG4 expression in podocytes (mRNA by PCR, protein by Western blot); type: cell-based
Protocol: The mouse podocyte cell line was mixed with 10% heat inactivated fetal bovine serum, 100 IU/mL of penicillin, and […] of streptomycin in RPMI culture medium and cultured in a humid atmosphere in the presence of 5% CO2 at 37° C. To evaluate VSIG4 expression, low glucose (LG, 5.5 mM) and high glucose (HG, 55 mM), 100 nM angiotensin II, 1.0 μg/mL and 3.0 μg/mL of Adriamycin were treated. The medium in a plate in which cells are being cultured was removed and RNA was extracted using Trizol (Life Technologies, Gaithersburg, MD, USA). Reverse transcription (RT) was performed using a cDNA synthesis kit (Applied biosystems, Roche Inc., Foster City, CA, USA), mRNA expression was evaluated using polymerase chain reaction (PCR), and the expression level was corrected with β-actin or GAPDH. Proteins obtained by treating cell lysates with RIPA buffer were quantified, and 20 μg of protein was separated using 8-15% SDS-PAGE. After separation of the protein by electrophoresis using 10% SDS-PAGE, the protein was transferred to a PVDF membrane (Millipore corporation bedford, USA) using a PAGE transfer buffer (Amersham Life Science, Arlington Heights, IL) at 270 mA for 4 hours, reacted overnight at 4° C. using a blocking solution (5% skim milk), and washed with Tris buffered saline with Tween-20 (TBS-T buffer; 10 mM Tris-Cl, pH 7.8, […] Nacl, 0.05% Tween-20). […]

HK2 cells = assay: VSIG4 expression in HK2 renal tubular cells (mRNA by PCR, protein by Western blot); type: cell-based, human; conditions: renal tubular cells treated with TGF-β (10 ng/mL recombinant); FIG. 3
Protocol: HK2 cells (A TCC, Manassan, VA), immortalized human renal proximal tubule cells, were cultured by adding, in a DMEM medium (Mediatech Inc., Corning Subsidiary, Manassas, VA), 10% heat inactivated fetal bovine serum (Tissue Culture Biologicals, Tulare, CA, USA), 100 IU/mL of penicillin, and […] of streptomycin in a humid atmosphere in the presence of 5% CO2 at 37° C.
[…] The purchased scrambled siRNA (control siRNA) and VSIG4 siRNA (z391g, Santa Cruz Biotechnology, Santa Cruz, CA) were each transfected by 200 MOI to suppress VSIG4 expression in HK2 cells.
To inhibit TGF-β expression, TGF-β-siRNA (Santa Cruz Biotechnology, Santa Cruz, CA, USA) was used, and 10 ng/mL of recombinant TGF-β (R&D systems, Minneapolis, MN, USA) was used for TGF-β stimulation experiment.
The medium in a plate in which cells are being cultured was removed and RNA was extracted using Trizol (Life Technologies, Gaithersburg, MD, USA). Reverse transcription (RT) was performed using a cDNA synthesis kit (Applied biosystems, Roche Inc., Foster City, CA, USA), mRNA expression was evaluated using polymerase chain reaction (PCR), and the expression level was corrected with β-actin or GAPDH.
Proteins obtained by treating cell lysates with RIPA buffer were quantified, and 20 μg of protein was separated using 8-15% SDS-PAGE. […]

Balb/c male mice = assay: Adriamycin-induced renal injury model; conditions: 11 mg/kg once into tail vein, 4 weeks, FIG. 8

Compound: angiotensin II (DRVYIHPF; Angiotensin-2; UniProt P01019 25-32, looked up) [main substance of kidney damage used to stimulate podocytes]
- expression of VSIG4 mRNA and protein (mouse podocyte cell line; podocytes stimulated with high glucose (55 mM) and angiotensin II (100 nM), compared to low glucose, FIG. 4): increased

Compound: TGF-β
- VSIG4 expression (HK2 cells): increased

Compound: COc1cccc2c1C(=O)c1c(O)c3c(c(O)c1C2=O)C[C@@](O)(C(=O)CO)C[C@@H]3O[C@H]1C[C@H](N)[C@H](O)[C@H](C)O1 [Adriamycin]
- VSIG4 protein expression (urine) (Balb/c male mice; 24-hour urine, ELISA): significantly increased
- albuminuria (Balb/c male mice; 24-hour urine): significantly increased
- VSIG4 mRNA expression in kidney tissues (Balb/c male mice): significantly increased
- expression of VSIG4 mRNA and protein (mouse podocyte cell line; podocytes, 1.0 μg/mL and 3.0 μg/mL, 12 hours and 24 hours, FIG. 9): increased over time

— US12590332B2, “Composition for diagnosing or treating kidney disease” (INJE UNIVERSITY INDUSTRY-ACADEMIC COOPERATION FOUNDATION, priority 2020, dated 2026)
